Here are results for four compounds from publication PMC9175088 (Drug Metabolism Letters, 2021).

Series [1] is described as follows: Metabolism of enflicoxib and E-6132 in cryopreserved hepatocytes. The following applies: male, Wistar, rat.
Assay in series [2]: as above
For series [3] the following is noted: enantiomers of enflicoxib; cited from earlier work.
A short description of series [4]: Enflicoxib metabolism in intestinal microsomes.
Series [5] is described as follows: Enflicoxib metabolism in intestinal microsomes. The source holds these as a separate data set.
Series [6] in a line: Secondary phase I metabolism in liver microsomes, unlabeled substrates. The class given is in vitro ADME. As to conditions: rat liver microsomes, positive control 10 µM; experiments with M8 as substrate. For orientation: Microsomes from liver hold many membrane-bound enzymes, among them those of drug oxidation.
The mark [7] stands for this setting: dog hepatocytes, positive control 10 µM.

Turning to `Cc1cc(=O)oc2cc(O)ccc12` [7-hydroxy-4-methylcoumarin], the half-life at 10 µM in series [1] is less than 5.9 min; in series [2] (male, beagle, dog, cryopreserved hepatocytes) it was 10.5 min. The same compound came in with a K in series [2] (setting [7]) of -0.0658.
For the compound `NS(=O)(=O)c1ccc(N2N=C(C(F)(F)F)C[C@@H]2c2ccc(F)cc2F)cc1` [Metabolite E-6231, (R)-(+)-enflicoxib], the “Pharmacological activity of enantiomer” value in series [3] is listed as “negligible”.
On to `NS(=O)(=O)c1ccc(N2N=C(C(F)(F)F)C[C@H]2c2ccc(F)cc2F)cc1` [Metabolite E-6232, (S)-(-)-enflicoxib], for which, in series [3], the “Pharmacological activity of enantiomer” value is recorded as “active enantiomer”.
As for `C[C@]12CC[C@H]3[C@@H](CCC4=CC(=O)CC[C@@]43C)[C@@H]1CC[C@@H]2O` [Testosterone, testosterone], the K in series [4] (dog intestinal microsomes, positive control 10 µM) is -0.0195; in series [5] (rat intestinal microsomes, positive control 10 µM), -0.0052; in series [2] (setting [7]) it was -0.0914; in series [6] it was -0.3314. The half-life at 10 µM is 35.5 min in series [4] (male, beagle, dog, intestinal microsomes, pH 7.4) and 133 min in series [5] (male, Sprague-Dawley, rat, intestinal microsomes, pH 7.4). The same compound yielded a t1/2 in series [2] (setting [7]) of 7.6 min.

The half-life is the time needed for the level to fall by half in the phase considered. A lower half-life goes with fast loss.
